Experiments:
[1] = Oral fed/fasted IV/oral pharmacokinetic comparison of M4N formulations, single 75 mg/kg dose; details: dogs, single 75 mg/kg oral or IV
[2] = dog, in vivo, iv, 75 mg/kg
[3] = Absorption of M4N in beagle dogs upon oral administration of solid formulations in capsules, serum LC/MS/MS; type: in vivo; details: oral single 100 mg/kg
Experimental: Five groups of dogs (n=2 per group, one male and one female) (age=approximately 6-9 months old) were exposed to a single 100 mg/kg dose of M4N in excipient to determine the optimal oral solid excipient. The composition of M4N in excipient was encapsulated in size 12 hard gelatin capsules prior to oral administration. The animals were fasted overnight prior to dosing. The excipients/formulations tested are set forth in Table 19 and were: (a) no excipient, where M4N was encapsulated; (b) HP-β-CD; (c) TPGS; (d) soybean oil+beeswax; and (e) olive oil+beeswax. Blood was collected from each animal via the jugular vein at the following time points: predose, 0.5 hr, 1 hr, 1.5 hr, 2 hr, 4 hr, 6 hr and 8 hr post dosing. Concentrations of M4N in serum were determined by Liquid Chromatography combined with tandem Mass Spectroscopy (LC/MS/MS).

[4] = Human Phase 0 three-way crossover microdose pharmacokinetic study of 14C-labelled M4N, AMS; type: in vivo; details: for F: bioavailability of oral dose compared to IV dose; for Tmax: intravenous dose
Experimental: This study was designed to assess the absorption of M4N when administered to humans as a sub-therapeutic dose either as a single oral dose under fed and fasted conditions or a single intravenous dose (Regimens A-C, respectively, in Table 24). The study was a three-way crossover study design in a target population of healthy male subjects and consisted of three study periods of approximately 35 hours duration, each separated by a minimum period of at least 7 days between dosing. During the course of each study period, pharmacokinetic blood samples were taken at specified time points after dosing and urine was collected over pre-defined time intervals. The subjects were able to leave the clinical unit after the completion of study specific procedures at 24 hours post-dose.
In this study, M4N was administered to humans in a 100 μg quantity. M4N was lightly-labelled with ^14C (3.3 kBq per 100 μg) and administered to healthy volunteers. Each oral administration of M4N consisted of 0.1 mg of ^14C labeled M4N and 376.8 mg of glycerol monooleate in a size 0 gelatin capsule. The single intravenous infusion of M4N consisted of 0.1 mg/mL ^14C labelled M4N, 30% (w/v) HP-β-CD, and 25% (v/v) PEG diluted with water to 1 mL for bolus injection. Following collection of blood and urine from each subject, samples were analyzed for ^14C content using Accelerator Mass Spectrometry (AMS) to determine the maximum concentration of M4N (Cmax) that occurred at time Tmax, the overall area under the curve (AUC) that corresponds to the overall absorption of M4N at the times of testing (AUC0-t) and overall (AUC0-∞), the terminal half-life (T1/2) of each sample and the relative and overall bioavailability (Frel and F), of the oral dose of M4N compared to the IV dose of M4N. The baseline levels of M4N were corrected for any residual M4N remaining in the subjects following the periods between dosing so as not to inflate the levels of M4N for any subsequent dosing.

[5] = Oral (gavage) repeated dose pharmacokinetic study of M4N in ten excipient formulations; details: rat, in vivo, 500 mg/kg
Experimental: The purpose of this study was to provide information on pharmacokinetics of a 500 mg/kg dose of M4N in ten different excipient formulations. […] Crl:(CD)SD male and female rats were assigned to ten dosage groups, five rats per sex per group. Samples were prepared having carriers as follows that were administered to the following groups of subjects:
Each formulation of M4N was administered orally via gavage on three occasions. The concentration of the M4N was 60 mg/mL administered at a dosage volume 8.33 mL/kg, based on the most recent body weight. The rats were given the first dose (day 1 of study) after being fasted overnight followed by a 72 hour washout (recovery) period. On day 5 of study (DS 5), the second dose of test article was administered to non-fasted rats followed by a one week washout (recovery) period. On DS 6, the rats were placed on a high fat diet (approximately 10% fat content versus approximately 5% in a standard diet). […] These observations were also recorded once daily on non dosing days and during the post dosage period. Body weights were recorded at least weekly during the acclimation period, daily during the dosage and at sacrifice terminal weight. Feed consumption values were recorded weekly during the dosage period and at sacrifice (feed left value). […] The time of each blood collection was recorded in the raw data. […]

[6] = human, 100 μg, total 14C plasma
[7] = human, oral and intravenous 100 μg

## COc1ccc(C[C@@H](C)[C@@H](C)Cc2ccc(OC)c(OC)c2)cc1OC [Formulation M4N, meso-1,4-bis(3,4-dimethoxyphenyl)-2,3-dimethylbutane]
[1]
  survival: All animals survived
[2]
  Clinical observations: diarrhea, emesis, and ataxia
[3]; Lyophilized HP-β-CD (81%)+M4N (185 mg/g)
  Absorption, ranking between formulations: higher than that containing TPGS
[3]; TPGS (20%)+M4N (133 mg/g)
  Absorption, ranking between formulations: higher than that containing soybean oil+beeswax
[3]; olive oil (95%)+beeswax (5%)+M4N (200 mg/g)
  Absorption, ranking between formulations: highest
[3]; soybean oil (95%)+beeswax (5%)+M4N (200 mg/g)
  Absorption, ranking between formulations: higher than M4N without an excipient
[4]; Regimen A (oral, fed): 100 μg single oral dose following a high fat breakfast, 14C, baseline corrected, mean ± SD
  F: 91.2 ± 19.1%
[4]; Regimen B (oral, fasted): 100 μg single oral dose following an overnight fast, 14C, baseline corrected, mean ± SD
  F: 122.1 ± 14.5%
[4]; [6]
  AUC0-t oral dose in fasted subjects compared with the intravenous dose: slightly higher
  AUC0-t oral dose in fed subjects compared with the intravenous dose: slightly lower
[4]; human, fed and fasted state
  apparent absorption following oral administration: very high
[4]; human, eight of the ten subjects (first sampling time)
  Tmax: 4.8 min
[4]; human, two subjects
  Tmax: 10.2 min
[4]; human, oral 100 μg
  AUC0-t in fed subjects compared with fasted subjects: generally lower
[4]; human, oral 100 μg, fasted subjects
  Tmax, generally: 60 min
[4]; [7]
  adverse events: no serious or severe adverse events
  tolerability: well tolerated
  vital signs or ECGs: No clinically significant changes
[4]; relative bioavailability, Regimen A (oral, fed): 100 μg single oral dose following a high fat breakfast, 14C, baseline corrected, mean ± SD
  Frel: 75.1 ± 16.2%
[5]
  Blood levels on high fat diet versus standard diet or fasting: always higher

Source: patent US20090022803A1, “Oral Formulations For Delivery of Catecholic Butanes Including Ndga Compounds” (priority 2005, published 2009)
